Assay results reported in PubChem BioAssay (NCI).
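All cell lines were grown in 96-well plates and treated with compound for 48 hours. TGI: total growth inhibition.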

Legend:
Assay in all cases: DTP human tumour cell line panel, 48 h
786-0 renal = system: 786-0 renal
A498 renal = system: A498 renal
A549 NSCLC = system: A549 NSCLC
ACHN renal = system: ACHN renal
BT-549 breast = system: BT-549 breast
CAKI-1 renal = system: CAKI-1 renal
CCRF-CEM leukemia = system: CCRF-CEM leukemia
COLO 205 colon = system: COLO 205 colon
DU-145 prostate = system: DU-145 prostate
EKVX NSCLC = system: EKVX NSCLC
HCC-2998 colon = system: HCC-2998 colon
HCT-116 colon = system: HCT-116 colon
HCT-15 colon = system: HCT-15 colon
HOP-62 NSCLC = system: HOP-62 NSCLC
HT29 colon = system: HT29 colon
IGROV1 ovarian = system: IGROV1 ovarian
K-562 leukemia = system: K-562 leukemia
KM12 colon = system: KM12 colon
LOX IMVI melanoma = system: LOX IMVI melanoma
M14 melanoma = system: M14 melanoma
MALME-3M melanoma = system: MALME-3M melanoma
MCF7 breast = system: MCF7 breast
MDA-MB-231 breast = system: MDA-MB-231 breast
MDA-MB-435 = system: MDA-MB-435
MDA-N = system: MDA-N
MOLT-4 leukemia = system: MOLT-4 leukemia
NCI-H226 lung = system: NCI-H226 lung
NCI-H23 lung = system: NCI-H23 lung
NCI-H460 lung = system: NCI-H460 lung
NCI-H522 lung = system: NCI-H522 lung
NCI/ADR-RES ovarian = system: NCI/ADR-RES ovarian
OVCAR-4 ovarian = system: OVCAR-4 ovarian
OVCAR-5 ovarian = system: OVCAR-5 ovarian
OVCAR-8 ovarian = system: OVCAR-8 ovarian
PC-3 prostate = system: PC-3 prostate
RPMI-8226 leukemia = system: RPMI-8226 leukemia
RXF 393 renal = system: RXF 393 renal
SF-268 CNS = system: SF-268 CNS
SF-295 CNS = system: SF-295 CNS
SF-539 CNS = system: SF-539 CNS
SK-MEL-2 melanoma = system: SK-MEL-2 melanoma
SK-MEL-28 melanoma = system: SK-MEL-28 melanoma
SK-MEL-5 melanoma = system: SK-MEL-5 melanoma
SK-OV-3 ovarian = system: SK-OV-3 ovarian
SN12C renal = system: SN12C renal
SNB-19 CNS = system: SNB-19 CNS
SNB-75 CNS = system: SNB-75 CNS
SR leukemia = system: SR leukemia
SW-620 colon = system: SW-620 colon
T-47D breast = system: T-47D breast
TK-10 renal = system: TK-10 renal
U251 CNS = system: U251 CNS
UACC-257 melanoma = system: UACC-257 melanoma
UACC-62 melanoma = system: UACC-62 melanoma
UO-31 renal = system: UO-31 renal
HOP-92 NSCLC = system: HOP-92 NSCLC
HS 578T breast = system: HS 578T breast
OVCAR-3 ovarian = system: OVCAR-3 ovarian

Measured: TGI

C=C(C)[C@@H]1C[C@H]2O[C@](O)(C(=C)CC(=O)/C=C(/C)C[C@@H]3OC(=O)[C@]24O[C@@H]34)[C@H]1O
not listed: HOP-92 NSCLC | HS 578T breast | OVCAR-3 ovarian
> 100 µM: all other assays above

O=[N+]([O-])c1ccc(N=Nc2c(O)ccc3cc(S(=O)(=O)O)ccc23)cc1
not listed: HCC-2998 colon | MCF7 breast | NCI-H226 lung | NCI-H460 lung | SF-539 CNS | SR leukemia
> 100 µM: all other assays above
